Source: ChEMBL document CHEMBL1909294, “Translating clinical findings into knowledge in drug safety evaluation--drug induced liver injury prediction system (DILIps)” (PLoS Comput Biol, 2011)

How the values were obtained:
[1] = system: Hepatotoxicity;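 as to HepSE Combined Scores: combined hepatic side effect score as listed in the training data of the Drug Induced Liver Injury Prediction System (DILIps)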;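 as to HepSE bilirubinemia: bilirubinemia hepatic side effect score drawn from the DILIps training data, a prediction system for drug-induced liver injury; call rule not given here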;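 as to HepSE elevated liver function tests: hepatic side effect score for raised liver function tests, as recorded in the DILIps training set used for predicting drug-induced liver injury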; as to HepSE hepatic failure: call rule not given here; as to HepSE liver disease: call rule not given here;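 as to HepSE liver fatty: hepatic side effect score for fatty liver, taken from the DILIps training set for predicting drug-induced liver injury; call rule not given here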;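 as to HepSE liver function tests abnormal: hepatic side effect score taken from the DILIps (drug-induced liver injury prediction system) training data, here covering abnormal liver function test findings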
[2] = system: Hepatotoxicity; remark: listed apart in the source;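 as to HepSE Combined Scores: combined hepatic side effect score as listed in the training data of the Drug Induced Liver Injury Prediction System (DILIps)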;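 as to HepSE bilirubinemia: bilirubinemia hepatic side effect score drawn from the DILIps training data, a prediction system for drug-induced liver injury; call rule not given here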;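 as to HepSE elevated liver function tests: hepatic side effect score for raised liver function tests, as recorded in the DILIps training set used for predicting drug-induced liver injury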; as to HepSE hepatic failure: call rule not given here; as to HepSE liver disease: call rule not given here;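 as to HepSE liver fatty: hepatic side effect score for fatty liver, taken from the DILIps training set for predicting drug-induced liver injury; call rule not given here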;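 as to HepSE liver function tests abnormal: hepatic side effect score taken from the DILIps (drug-induced liver injury prediction system) training data, here covering abnormal liver function test findings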
[3] = system: Hepatotoxicity; remark: listed apart in the source;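 as to HepSE Combined Scores: combined hepatic side effect score as listed in the training data of the Drug Induced Liver Injury Prediction System (DILIps)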;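 as to HepSE bilirubinemia: bilirubinemia hepatic side effect score drawn from the DILIps training data, a prediction system for drug-induced liver injury; call rule not given here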;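 as to HepSE elevated liver function tests: hepatic side effect score for raised liver function tests, as recorded in the DILIps training set used for predicting drug-induced liver injury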; as to HepSE hepatic failure: call rule not given here;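 as to HepSE liver fatty: hepatic side effect score for fatty liver, taken from the DILIps training set for predicting drug-induced liver injury; call rule not given here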;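 as to HepSE liver function tests abnormal: hepatic side effect score taken from the DILIps (drug-induced liver injury prediction system) training data, here covering abnormal liver function test findings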
[4] = system: Hepatotoxicity; remark: listed apart in the source;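 as to HepSE Combined Scores: combined hepatic side effect score as listed in the training data of the Drug Induced Liver Injury Prediction System (DILIps)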;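 as to HepSE bilirubinemia: bilirubinemia hepatic side effect score drawn from the DILIps training data, a prediction system for drug-induced liver injury; call rule not given here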;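 as to HepSE elevated liver function tests: hepatic side effect score for raised liver function tests, as recorded in the DILIps training set used for predicting drug-induced liver injury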; as to HepSE hepatic failure: call rule not given here;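 as to HepSE liver fatty: hepatic side effect score for fatty liver, taken from the DILIps training set for predicting drug-induced liver injury; call rule not given here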;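 as to HepSE liver function tests abnormal: hepatic side effect score taken from the DILIps (drug-induced liver injury prediction system) training data, here covering abnormal liver function test findings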
[5] = system: Hepatotoxicity; remark: listed apart in the source; as to HepSE hepatic failure: call rule not given here
[6] = system: Hepatotoxicity; remark: listed apart in the source; as to HepSE hepatic failure: call rule not given here
[7] = system: Hepatotoxicity; remark: listed apart in the source
[8] = system: Hepatotoxicity; remark: listed apart in the source
[9] = system: Hepatotoxicity; remark: listed apart in the source
[10] = system: Hepatotoxicity; remark: listed apart in the source
[11] = system: Hepatotoxicity; remark: listed apart in the source
[12] = system: Hepatotoxicity; remark: listed apart in the source
[13] = system: Hepatotoxicity; remark: listed apart in the source
[14] = system: Hepatotoxicity; remark: listed apart in the source

COc1ccc(C(CN(C)C)C2(O)CCCCC2)cc1 (stereo not drawn) [VENLAFAXINE]
HepSE_hepatic failure [1]: 0 | HepSE_liver function tests abnormal [2]: 0 | HepSE_liver fatty [3]: 1 | HepSE_elevated liver function tests [4]: 0 | HepSE_bilirubinemia [5]: 1 | HepSE_Combined Scores [6]: 7 | HepSE_liver disease [7]: 0 | HepSE_cirrhosis [8]: 1 | HepSE_hepatic necrosis [9]: 0 | HepSE_cholecystitis [10]: 1 | HepSE_jaundice [11]: 1 | HepSE_cholelithiasis [12]: 1 | HepSE_hepatomegaly [13]: 0 | HepSE_hepatitis [14]: 1

OC(CCN1CCCC1)(c1ccccc1)C1CCCCC1 (stereo not drawn) [PROCYCLIDINE]
HepSE_hepatic failure [1]: 0 | HepSE_liver function tests abnormal [2]: 0 | HepSE_liver fatty [3]: 0 | HepSE_elevated liver function tests [4]: 0 | HepSE_bilirubinemia [5]: 0 | HepSE_Combined Scores [6]: 0 | HepSE_liver disease [7]: 0 | HepSE_cirrhosis [8]: 0 | HepSE_hepatic necrosis [9]: 0 | HepSE_cholecystitis [10]: 0 | HepSE_jaundice [11]: 0 | HepSE_cholelithiasis [12]: 0 | HepSE_hepatomegaly [13]: 0 | HepSE_hepatitis [14]: 0

NCCCC(=O)O [GAMMA-AMINOBUTYRIC ACID]
HepSE_hepatic failure [1]: 0 | HepSE_liver function tests abnormal [2]: 0 | HepSE_liver fatty [3]: 0 | HepSE_elevated liver function tests [4]: 0 | HepSE_bilirubinemia [5]: 0 | HepSE_Combined Scores [6]: 0 | HepSE_liver disease [7]: 0 | HepSE_cirrhosis [8]: 0 | HepSE_hepatic necrosis [9]: 0 | HepSE_cholecystitis [10]: 0 | HepSE_jaundice [11]: 0 | HepSE_cholelithiasis [12]: 0 | HepSE_hepatomegaly [13]: 0 | HepSE_hepatitis [14]: 0

C[C@H]1O[C@H](O[C@H]2[C@H](O)[C@@H](O)[C@@H](O[C@H]3[C@H](O)[C@@H](O)C(O)O[C@@H]3CO)O[C@@H]2CO)[C@H](O)[C@@H](O)[C@@H]1N[C@H]1C=C(CO)[C@@H](O)[C@H](O)[C@H]1O (stereo partly drawn) [ACARBOSE]
HepSE_hepatic failure [1]: 0 | HepSE_liver function tests abnormal [2]: 1 | HepSE_liver fatty [3]: 0 | HepSE_elevated liver function tests [4]: 0 | HepSE_bilirubinemia [5]: 0 | HepSE_Combined Scores [6]: 3 | HepSE_liver disease [7]: 0 | HepSE_cirrhosis [8]: 0 | HepSE_hepatic necrosis [9]: 0 | HepSE_cholecystitis [10]: 0 | HepSE_jaundice [11]: 1 | HepSE_cholelithiasis [12]: 0 | HepSE_hepatomegaly [13]: 0 | HepSE_hepatitis [14]: 1

C[C@H]1C[C@@H]2[C@H]([C@@H](O)C[C@@]3(C)[C@H]2CC[C@]3(O)C(=O)CO)[C@@]2(C)C=CC(=O)C=C12 [METHYLPREDNISOLONE]
HepSE_hepatic failure [1]: 0 | HepSE_liver function tests abnormal [2]: 0 | HepSE_liver fatty [3]: 0 | HepSE_elevated liver function tests [4]: 0 | HepSE_bilirubinemia [5]: 0 | HepSE_Combined Scores [6]: 0 | HepSE_liver disease [7]: 0 | HepSE_cirrhosis [8]: 0 | HepSE_hepatic necrosis [9]: 0 | HepSE_cholecystitis [10]: 0 | HepSE_jaundice [11]: 0 | HepSE_cholelithiasis [12]: 0 | HepSE_hepatomegaly [13]: 0 | HepSE_hepatitis [14]: 0

O=C1CN(/N=C/c2ccc(-c3ccc([N+](=O)[O-])cc3)o2)C(O)=N1 [DANTROLENE]
HepSE_hepatic failure [1]: 1 | HepSE_liver function tests abnormal [2]: 0 | HepSE_liver fatty [3]: 0 | HepSE_elevated liver function tests [4]: 0 | HepSE_bilirubinemia [5]: 0 | HepSE_Combined Scores [6]: 2 | HepSE_liver disease [7]: 0 | HepSE_cirrhosis [8]: 0 | HepSE_hepatic necrosis [9]: 0 | HepSE_cholecystitis [10]: 0 | HepSE_jaundice [11]: 0 | HepSE_cholelithiasis [12]: 0 | HepSE_hepatomegaly [13]: 0 | HepSE_hepatitis [14]: 1

O=S(=O)(OC[C@H]1O[C@@H](O[C@]2(COS(=O)(=O)[O][Al]([OH])[OH])O[C@H](OS(=O)(=O)[O][Al]([OH])[OH])[C@@H](OS(=O)(=O)[O][Al]([OH])[OH])[C@@H]2OS(=O)(=O)[O][Al]([OH])[OH])[C@H](OS(=O)(=O)[O][Al]([OH])[OH])[C@@H](OS(=O)(=O)[O][Al]([OH])[OH])[C@@H]1OS(=O)(=O)[O][Al]([OH])[OH])[O][Al]([OH])[OH].[OH][Al]([OH])[OH].[OH][Al]([OH])[OH].[OH][Al]([OH])[OH].[OH][Al]([OH])[OH].[OH][Al]([OH])[OH].[OH][Al]([OH])[OH].[OH][Al]([OH])[OH].[OH][Al]([OH])[OH]
HepSE_hepatic failure [1]: 0 | HepSE_liver function tests abnormal [2]: 0 | HepSE_liver fatty [3]: 0 | HepSE_elevated liver function tests [4]: 0 | HepSE_bilirubinemia [5]: 0 | HepSE_Combined Scores [6]: 0 | HepSE_liver disease [7]: 0 | HepSE_cirrhosis [8]: 0 | HepSE_hepatic necrosis [9]: 0 | HepSE_cholecystitis [10]: 0 | HepSE_jaundice [11]: 0 | HepSE_cholelithiasis [12]: 0 | HepSE_hepatomegaly [13]: 0 | HepSE_hepatitis [14]: 0

Clc1ccc2c(c1)C(c1ccccc1)=NCc1nncn1-2 [ESTAZOLAM]
HepSE_hepatic failure [1]: 0 | HepSE_liver function tests abnormal [2]: 0 | HepSE_liver fatty [3]: 0 | HepSE_elevated liver function tests [4]: 0 | HepSE_bilirubinemia [5]: 0 | HepSE_Combined Scores [6]: 0 | HepSE_liver disease [7]: 0 | HepSE_cirrhosis [8]: 0 | HepSE_hepatic necrosis [9]: 0 | HepSE_cholecystitis [10]: 0 | HepSE_jaundice [11]: 0 | HepSE_cholelithiasis [12]: 0 | HepSE_hepatomegaly [13]: 0 | HepSE_hepatitis [14]: 0

O=C1[C@H](CC[C@H](O)c2ccc(F)cc2)[C@@H](c2ccc(O)cc2)N1c1ccc(F)cc1 [EZETIMIBE]
HepSE_hepatic failure [1]: 0 | HepSE_liver function tests abnormal [2]: 0 | HepSE_liver fatty [3]: 0 | HepSE_elevated liver function tests [4]: 0 | HepSE_bilirubinemia [5]: 0 | HepSE_Combined Scores [6]: 3 | HepSE_liver disease [7]: 0 | HepSE_cirrhosis [8]: 0 | HepSE_hepatic necrosis [9]: 0 | HepSE_cholecystitis [10]: 1 | HepSE_jaundice [11]: 0 | HepSE_cholelithiasis [12]: 1 | HepSE_hepatomegaly [13]: 0 | HepSE_hepatitis [14]: 1

CSCC[C@H](NC(=O)[C@H](Cc1ccc(OS(=O)(=O)O)cc1)NC(=O)[C@@H](N)CC(=O)O)C(=O)NCC(=O)N[C@@H](Cc1c[nH]c2ccccc12)C(=O)N[C@@H](CCSC)C(=O)N[C@@H](CC(=O)O)C(=O)N[C@@H](Cc1ccccc1)C(N)=O [SINCALIDE]
HepSE_hepatic failure [1]: 0 | HepSE_liver function tests abnormal [2]: 0 | HepSE_liver fatty [3]: 0 | HepSE_elevated liver function tests [4]: 0 | HepSE_bilirubinemia [5]: 0 | HepSE_Combined Scores [6]: 0 | HepSE_liver disease [7]: 0 | HepSE_cirrhosis [8]: 0 | HepSE_hepatic necrosis [9]: 0 | HepSE_cholecystitis [10]: 0 | HepSE_jaundice [11]: 0 | HepSE_cholelithiasis [12]: 0 | HepSE_hepatomegaly [13]: 0 | HepSE_hepatitis [14]: 0

CO/N=C(\C(=O)N[C@@H]1C(=O)N2C(C(=O)OCOC(=O)C(C)(C)C)=C(/C=C\c3scnc3C)CS[C@H]12)c1csc(N)n1 [CEFDITOREN PIVOXIL]
HepSE_hepatic failure [1]: 0 | HepSE_liver function tests abnormal [2]: 1 | HepSE_liver fatty [3]: 0 | HepSE_elevated liver function tests [4]: 0 | HepSE_bilirubinemia [5]: 0 | HepSE_Combined Scores [6]: 1 | HepSE_liver disease [7]: 0 | HepSE_cirrhosis [8]: 0 | HepSE_hepatic necrosis [9]: 0 | HepSE_cholecystitis [10]: 0 | HepSE_jaundice [11]: 0 | HepSE_cholelithiasis [12]: 0 | HepSE_hepatomegaly [13]: 0 | HepSE_hepatitis [14]: 0

CCCCN(CCCC)CCC(O)c1cc2c(Cl)cc(Cl)cc2c2cc(C(F)(F)F)ccc12 (stereo not drawn) [HALOFANTRINE]
HepSE_hepatic failure [1]: 0 | HepSE_liver function tests abnormal [2]: 0 | HepSE_liver fatty [3]: 0 | HepSE_elevated liver function tests [4]: 0 | HepSE_bilirubinemia [5]: 0 | HepSE_Combined Scores [6]: 0 | HepSE_liver disease [7]: 0 | HepSE_cirrhosis [8]: 0 | HepSE_hepatic necrosis [9]: 0 | HepSE_cholecystitis [10]: 0 | HepSE_jaundice [11]: 0 | HepSE_cholelithiasis [12]: 0 | HepSE_hepatomegaly [13]: 0 | HepSE_hepatitis [14]: 0
